Reference: ChEMBL document CHEMBL3779859, “Synergistic activity of a short lipidated antimicrobial peptide (lipoAMP) and colistin or tobramycin against Pseudomonas aeruginosa from cystic fibrosis patients” (Medchemcomm, 2016)
In brackets after ≈: the same amount, converted by molar mass. Activity calls are given as the source filed them. The calls are words filed in the database; no cut-off is given here. Peptide text beside a SMILES is read from it. * marks the point of attachment. Decanoyl = CCCCCCCCCC(=O)*

Legend:
Pseudomonas aeruginosa [1] = assay: Antibacterial activity against Pseudomonas aeruginosa KD491 clinical isolate assessed as delay in growth at 4 to 8 ug/ml measured every 15 mins by microtiter plate reader method; type: functional, organism-based
Pseudomonas aeruginosa [2] = assay: Antibacterial activity against Pseudomonas aeruginosa D599 clinical isolate after 16 to 20 hrs by microdilution assay; type: functional
Pseudomonas aeruginosa [3] = assay: Antibacterial activity against Pseudomonas aeruginosa kl 1.1 clinical isolate after 16 to 20 hrs by microdilution assay; type: functional
Pseudomonas aeruginosa [4] = assay: Antibacterial activity against Pseudomonas aeruginosa Clone C clinical isolate after 16 to 20 hrs by microdilution assay; type: functional
Pseudomonas aeruginosa [5] = assay: Antibacterial activity against Pseudomonas aeruginosa Clone C clinical isolate assessed as inhibition of biofilm formation at 32 ug/ml after 18 to 22 hrs by crystal violet staining-based polystyrene microtiter plate reader method in absence of colistin; type: functional, organism-based
Pseudomonas aeruginosa [6] = assay: Antibacterial activity against Pseudomonas aeruginosa Clone C clinical isolate assessed as growth inhibition at 8 ug/ml measured every 15 mins by microtiter plate reader method in presence of […] ug/ml colistin; type: functional, organism-based
Pseudomonas aeruginosa [7] = assay: Antibacterial activity against Pseudomonas aeruginosa KD491 clinical isolate after 16 to 20 hrs by microdilution assay; type: functional
Pseudomonas aeruginosa [8] = assay: Antibacterial activity against Pseudomonas aeruginosa KD491 clinical isolate after 18 to 22 hrs by checkerboard method in presence of colistin; type: functional
Pseudomonas aeruginosa [9] = assay: Antibacterial activity against Pseudomonas aeruginosa VW1633 clinical isolate after 16 to 20 hrs by microdilution assay; type: functional
Pseudomonas aeruginosa [10] = assay: Antibacterial activity against Pseudomonas aeruginosa VW1471 clinical isolate after 16 to 20 hrs by microdilution assay; type: functional
Pseudomonas aeruginosa [11] = assay: Antibacterial activity against Pseudomonas aeruginosa LESB58 clinical isolate assessed as growth inhibition at 4 ug/ml measured every 15 mins by microtiter plate reader method in presence of 2 ug/ml colistin; type: functional, organism-based
Pseudomonas aeruginosa [12] = assay: Antibacterial activity against Pseudomonas aeruginosa VW1540 clinical isolate after 16 to 20 hrs by microdilution assay; type: functional
Pseudomonas aeruginosa [13] = assay: Antibacterial activity against Pseudomonas aeruginosa KD491 clinical isolate assessed as inhibition of biofilm formation at 2 ug/ml after 18 to 22 hrs by crystal violet staining-based polystyrene microtiter plate reader method; type: functional
Pseudomonas aeruginosa [14] = assay: Antibacterial activity against Pseudomonas aeruginosa KD491 clinical isolate assessed as inhibition of biofilm formation at 8 ug/ml after 24 hrs by propidium iodide staining-based confocal laser microscopy; type: functional, organism-based
Pseudomonas aeruginosa [15] = assay: Antibacterial activity against Pseudomonas aeruginosa PAO1 clinical isolate assessed as inhibition of biofilm formation at 32 ug/ml after 18 to 22 hrs by crystal violet staining-based polystyrene microtiter plate reader method in presence of 2 ug/ml tobramycin; type: functional, organism-based
Pseudomonas aeruginosa [16] = assay: Antibacterial activity against Pseudomonas aeruginosa Clone C clinical isolate assessed as inhibition of biofilm formation at 32 ug/ml after 18 to 22 hrs by crystal violet staining-based polystyrene microtiter plate reader method in presence of 2 ug/ml tobramycin; type: functional, organism-based
Pseudomonas aeruginosa [17] = assay: Antibacterial activity against Pseudomonas aeruginosa VW1538 clinical isolate after 16 to 20 hrs by microdilution assay; type: functional
Pseudomonas aeruginosa [18] = assay: Antibacterial activity against Pseudomonas aeruginosa Clone C clinical isolate assessed as delay in growth rate in exponential phase of bacterial growth curve at 8 to 16 ug/ml measured every 15 mins by microtiter plate reader method; type: functional, organism-based
Pseudomonas aeruginosa [19] = assay: Antibacterial activity against Pseudomonas aeruginosa PAO1 clinical isolate assessed as growth inhibition at 4 ug/ml measured every 15 mins by microtiter plate reader method in presence of 1 ug/ml colistin; type: functional, organism-based
Pseudomonas aeruginosa [20] = assay: Antibacterial activity against Pseudomonas aeruginosa Clone C clinical isolate assessed as delay in growth at 8 to 16 ug/ml measured every 15 mins by microtiter plate reader method; type: functional, organism-based
Pseudomonas aeruginosa [21] = assay: Antibacterial activity against Pseudomonas aeruginosa PAO1 clinical isolate after 18 to 22 hrs by checkerboard method in presence of tobramycin; type: functional
Pseudomonas aeruginosa [22] = assay: Antibacterial activity against Pseudomonas aeruginosa Clone C clinical isolate after 18 to 22 hrs by checkerboard method in presence of tobramycin; type: functional

MIC (Pseudomonas aeruginosa [2]): 128 µg/mL (≈ 96.4 µM)
MIC (Pseudomonas aeruginosa [3]): 128 µg/mL (≈ 96.4 µM)
MIC (Pseudomonas aeruginosa [4]): 128 µg/mL (≈ 96.4 µM)
MIC (Pseudomonas aeruginosa [7]): 16 µg/mL (≈ 12.1 µM)
MIC (Pseudomonas aeruginosa [9]): 16 µg/mL (≈ 12.1 µM)
MIC (Pseudomonas aeruginosa [10]): 64 µg/mL (≈ 48.2 µM)
MIC (Pseudomonas aeruginosa [12]): 64 µg/mL (≈ 48.2 µM)
MIC (Pseudomonas aeruginosa [17]): 64 µg/mL (≈ 48.2 µM)
SMILES: CCCCCCCCCC(=O)NCCCC[C@H](NC(=O)[C@H](Cc1c[nH]c2ccccc12)NC(=O)[C@H](CCCNC(=N)N)NC(=O)[C@H](Cc1c[nH]c2ccccc12)NC(=O)[C@H](CCCNC(=N)N)NC(=O)[C@H](Cc1c[nH]c2ccccc12)NC(=O)[C@@H](N)CCCNC(=N)N)C(=O)O (H-RWRWRWK(Decanoyl)-OH)
Activity (Pseudomonas aeruginosa [1]): Active
inhibition (Pseudomonas aeruginosa [5]): inactive
growth inhibition (GI) (Pseudomonas aeruginosa [6]): Active
fractional inhibitory concentration index (FICI) (Pseudomonas aeruginosa [8]): 0.2625
growth inhibition (GI) (Pseudomonas aeruginosa [11]): Active
inhibition at 2 µg/mL (Pseudomonas aeruginosa [13]): 45%
inhibition (Pseudomonas aeruginosa [14]): inactive
inhibition (Pseudomonas aeruginosa [15]): inactive
inhibition (Pseudomonas aeruginosa [16]): inactive
Activity (Pseudomonas aeruginosa [18]): Active
growth inhibition (GI) (Pseudomonas aeruginosa [19]): Active
Activity (Pseudomonas aeruginosa [20]): Active
fractional inhibitory concentration index (FICI) (Pseudomonas aeruginosa [21]): 0.75
fractional inhibitory concentration index (FICI) (Pseudomonas aeruginosa [22]): 0.5
